Blank lines part the entries; values can stand above or below the compound they belong to. Calls of active or inactive are those of the source. No cut-off for these calls is given here.
Columns and labels:
Adenosine receptor A1 [1] = molecular target: T1, Adenosine receptor A1 (Homo sapiens, UniProt P30542); assay: Antagonist activity at human adenosine A1 receptor expressed in CHO cells coexpressing cAMP response element assessed as inhibition of agonist-induced response by SPAP reporter gene assay in presence of forskolin; assay type: functional, cell-based
T1 sequence (P30542 whole entry): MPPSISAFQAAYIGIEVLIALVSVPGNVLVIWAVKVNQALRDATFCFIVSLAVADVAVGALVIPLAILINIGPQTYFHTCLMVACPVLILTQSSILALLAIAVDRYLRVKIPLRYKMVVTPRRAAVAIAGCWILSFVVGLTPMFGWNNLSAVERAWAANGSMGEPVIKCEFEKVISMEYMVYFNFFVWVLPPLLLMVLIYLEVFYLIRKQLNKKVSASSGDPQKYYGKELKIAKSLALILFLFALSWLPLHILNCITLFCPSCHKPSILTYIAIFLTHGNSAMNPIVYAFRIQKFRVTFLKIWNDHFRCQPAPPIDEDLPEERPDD

Adenosine receptor A2a [2] = molecular target: T2, Adenosine receptor A2a (Homo sapiens, UniProt P29274); assay: Displacement of [3H]CGS21680 from adenosine A2A receptor in human striatal membranes; assay type: cell membranes, Striatum, Membrane
T2 sequence (P29274 whole entry): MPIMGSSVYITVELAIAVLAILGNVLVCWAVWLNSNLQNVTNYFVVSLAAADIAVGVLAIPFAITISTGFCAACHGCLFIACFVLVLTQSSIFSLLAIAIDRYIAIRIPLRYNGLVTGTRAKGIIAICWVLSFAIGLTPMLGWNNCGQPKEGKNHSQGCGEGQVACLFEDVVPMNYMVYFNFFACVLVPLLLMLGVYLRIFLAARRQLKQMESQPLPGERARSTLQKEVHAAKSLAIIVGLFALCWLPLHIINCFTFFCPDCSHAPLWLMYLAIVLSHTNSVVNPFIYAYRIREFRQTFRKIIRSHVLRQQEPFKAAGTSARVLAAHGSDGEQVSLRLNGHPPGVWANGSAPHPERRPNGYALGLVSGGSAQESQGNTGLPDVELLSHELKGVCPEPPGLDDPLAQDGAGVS

Adenosine receptor A3 [3] = molecular target: T3, Adenosine receptor A3 (Homo sapiens, UniProt P0DMS8); assay type: cell-based, CHO
T3 sequence (P0DMS8 whole entry): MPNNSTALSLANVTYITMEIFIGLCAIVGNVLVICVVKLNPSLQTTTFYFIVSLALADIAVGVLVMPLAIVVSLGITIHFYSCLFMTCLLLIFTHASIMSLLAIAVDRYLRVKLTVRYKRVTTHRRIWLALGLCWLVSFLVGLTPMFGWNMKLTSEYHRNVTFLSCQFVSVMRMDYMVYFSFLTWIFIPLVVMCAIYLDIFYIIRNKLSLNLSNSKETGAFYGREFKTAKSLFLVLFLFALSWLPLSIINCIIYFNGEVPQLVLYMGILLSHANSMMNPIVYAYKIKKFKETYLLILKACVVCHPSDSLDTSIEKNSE

Adenosine receptor A1 [4] = molecular target: T1, Adenosine receptor A1; assay: Displacement of [3H]DPCPX from adenosine A1 receptor in human cortical membranes; assay type: cell membranes
[5] = molecular target: T4, Adenosine receptor A1 (Homo sapiens) (UniProt P30542); assay: Displacement of [3H]R-PIA from human adenosine A1 receptor expressed in CHO cells at 10 uM after 60 mins by […] analysis relative to control; assay type: cell-based
T4 sequence (whole entry): T1 sequence (P30542 whole entry)

Adenosine receptor A2a [6] = molecular target: T2, Adenosine receptor A2a; assay: Displacement of [3H]CGS21680 from human adenosine A2A receptor expressed in HEK293 cells after 60 mins by […] analysis; assay type: cell-based
Adenosine receptor A3 [7] = molecular target: T3, Adenosine receptor A3; assay type: cell-based, CHO; remark: listed apart in the source
Adenosine receptor A3 [8] = molecular target: T3, Adenosine receptor A3
Description: Displacement of [125I]I-AB-MECA from human adenosine A3 receptor expressed in CHO cells after 90 mins by gamma counting analysis

Adenosine receptor A1 [9] = molecular target: T5, Adenosine receptor A1 (Bos taurus, UniProt P28190); assay: Displacement of [3H]ADAC from adenosine A1 receptor in bovine cerebral cortical membranes after 120 mins; assay type: cell membranes
T5 sequence (P28190 whole entry): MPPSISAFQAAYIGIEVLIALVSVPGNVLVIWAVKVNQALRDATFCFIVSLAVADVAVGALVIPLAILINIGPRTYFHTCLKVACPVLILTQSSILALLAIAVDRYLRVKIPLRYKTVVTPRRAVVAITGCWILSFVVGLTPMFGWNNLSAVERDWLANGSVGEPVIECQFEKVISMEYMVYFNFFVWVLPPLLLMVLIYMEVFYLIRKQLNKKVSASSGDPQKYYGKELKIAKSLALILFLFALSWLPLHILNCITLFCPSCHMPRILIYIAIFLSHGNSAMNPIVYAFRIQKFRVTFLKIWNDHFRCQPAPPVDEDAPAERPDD

Adenosine receptor A1 [10] = molecular target: T6, Adenosine receptor A1 (Rattus norvegicus, UniProt P25099); assay: Displacement of [3H]ADAC from adenosine A1 receptor in rat cerebral cortical membranes after 120 mins; assay type: cell membranes, Membrane
T6 sequence (P25099 whole entry): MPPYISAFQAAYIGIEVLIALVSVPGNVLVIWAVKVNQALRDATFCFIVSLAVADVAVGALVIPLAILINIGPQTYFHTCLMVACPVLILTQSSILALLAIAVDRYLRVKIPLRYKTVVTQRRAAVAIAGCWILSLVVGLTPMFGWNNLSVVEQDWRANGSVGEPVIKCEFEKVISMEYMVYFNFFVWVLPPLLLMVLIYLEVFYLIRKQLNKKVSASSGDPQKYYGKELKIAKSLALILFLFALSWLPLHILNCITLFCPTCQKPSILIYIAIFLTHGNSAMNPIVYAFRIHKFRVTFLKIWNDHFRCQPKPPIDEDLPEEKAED

[11] = molecular target: T4, Adenosine receptor A1 (Homo sapiens); assay: Displacement of [3H]DPCPX from human adenosine A1 receptor expressed in CHO cells up to 0.1 mM after 2 hrs by scintillation counting analysis; assay type: cell-based
Adenosine receptor A2a [12] = molecular target: T2, Adenosine receptor A2a; assay: Binding affinity to human adenosine A2A receptor expressed in HEK293 cells by fluorescence polarization assay; assay type: cell-based
Adenosine receptor A2a [13] = molecular target: T2, Adenosine receptor A2a; assay: Competitive binding affinity to human adenosine A2A receptor expressed in HEK293 cells after 60 mins by fluorescence polarization assay in presence of MRS5346
Adenosine receptor A2a [14] = molecular target: T2, Adenosine receptor A2a; assay: Displacement of [3H]CGS21680 from human adenosine A2A receptor expressed in HEK293 cells at 10 uM after 60 mins by […] analysis relative to control; assay type: cell-based
[15] = molecular target: T4, Adenosine receptor A1 (Homo sapiens); assay: Competitive antagonist activity at GFP-tagged adenosine A1 receptor (unknown origin) expressed in CHO cells assessed as inhibition of forskolin-stimulated cAMP accumulation by liquid scintillation counting analysis; assay type: functional, cell-based
[16] = molecular target: T4, Adenosine receptor A1 (Homo sapiens); assay: Competitive antagonist activity at GFP-tagged adenosine A1 receptor (unknown origin) expressed in CHO cells assessed as stimulation of inositol phosphate accumulation by scintillation counting analysis; assay type: functional, cell-based
Adenosine receptor A3 [17] = molecular target: T3, Adenosine receptor A3; assay: Binding affinity to human adenosine A3 receptor expressed in CHO cells after 90 mins; assay type: cell-based
Adenosine receptor A1 [18] = molecular target: T1, Adenosine receptor A1; assay: Displacement of [3H]R-PIA from human adenosine A1 receptor expressed in CHO cells after 60 mins by […] analysis; assay type: cell-based
Adenosine receptor A3 [19] = molecular target: T3, Adenosine receptor A3; assay: Binding affinity to human adenosine A3 receptor expressed in CHO cells by flow cytometric analysis; assay type: cell-based

- Kd (Adenosine receptor A1 [1]): 17.8 nM
Compound: CCNC(=O)[C@H]1O[C@@H](n2cnc3c(NCCOCCOCCNC(=O)COc4ccc(/C=C/C5=[N+]6C(=Cc7ccc(-c8cccs8)n7[B-]6(F)F)C=C5)cc4)ncnc32)[C@H](O)[C@@H]1O

- Kd (Adenosine receptor A1 [1]): 12.9 nM
Compound: CCNC(=O)[C@H]1O[C@@H](n2cnc3c(NCCCCCCCCCCCNC(=O)COc4ccc(/C=C/C5=[N+]6C(=Cc7ccc(-c8cccs8)n7[B-]6(F)F)C=C5)cc4)ncnc32)[C@H](O)[C@@H]1O

- Ki (Adenosine receptor A2a [2]): 6760 nM
- Ki (Adenosine receptor A3 [3]): 56.2 nM
- Ki (Adenosine receptor A1 [4]): > 10000 nM
Compound: CCNC(=O)[C@H]1O[C@@H](n2cnc3c(NCCNc4ccc([N+](=O)[O-])c5nonc45)ncnc32)[C@H](O)[C@@H]1O

- inhibition [5]: 5%
- Ki (Adenosine receptor A2a [6]): 2510 nM
- Ki (Adenosine receptor A3 [7]): 2400 nM
Compound: Cn1cc2c(nc(NCCCNC(=S)Nc3ccc(C4c5ccc(O)cc5OC5=CC(=O)C=CC54)c(C(=O)O)c3)n3nc(-c4ccco4)nc23)n1 (configuration not stated)

Compound: Nc1nc2ccc(Cl)cc2c2nc(-c3ccco3)nn12 [CGS-15943]
- Ki (Adenosine receptor A3 [8]): 35 nM

- Kd (Adenosine receptor A1 [1]): 14.1 nM
Compound: CCNC(=O)[C@H]1O[C@@H](n2cnc3c(NCCCCCCCCNC(=O)COc4ccc(/C=C/C5=[N+]6C(=Cc7ccc(-c8cccs8)n7[B-]6(F)F)C=C5)cc4)ncnc32)[C@H](O)[C@@H]1O

- Ki (Adenosine receptor A1 [9]): 1.62 nM
- Ki (Adenosine receptor A1 [10]): 4.37 nM
Compound: O=C(Cc1ccc(NC(=O)Cc2ccc(Nc3ncnc4c3ncn4[C@@H]3O[C@H](CO)[C@@H](O)[C@H]3O)cc2)cc1)NCCNc1ccc([N+](=O)[O-])c2nonc12

- Activity [11]: inactive
Compound: CCCn1c(=O)c2[nH]c(-c3ccc(OCC(=O)NCCNC(=O)CCCCCCC(=O)NCCNC(=O)CCC4=[N+]5C(=Cc6c(C)cc(C)n6[B-]5(F)F)C=C4)cc3)nc2n(CCC)c1=O

- Kd (Adenosine receptor A2a [12]): 16.5 nM
Compound: N=c1ccc2c(-c3ccc(C(=O)NCCCCCCn4cc(NCCNC(=O)COc5ccc(CCCn6ncc7c6nc(N)n6nc(-c8ccco8)nc76)cc5)nn4)cc3C(=O)O)c3ccc(N)c(S(=O)(=O)O)c3oc-2c1S(=O)(=O)O

- Activity [11]: inactive
Compound: CCNC(=O)[C@H]1O[C@@H](n2cnc3c(NCCCCNC(=O)CCCCCN4/C(=C/C=C/C=C/C5=[N+](CC)c6cc(S(=O)(=O)O)ccc6C5(C)C)C(C)(C)c5cc(S(=O)(=O)[O-])ccc54)ncnc32)[C@H](O)[C@@H]1O

- Ki (Adenosine receptor A2a [13]): 814 nM
Compound: OC[C@H]1O[C@@H](n2cnc3c(NC4CCCC4)ncnc32)[C@H](O)[C@@H]1O [N6-CYCLOPENTYLADENOSINE]

- inhibition [5]: 0%
- inhibition (Adenosine receptor A2a [14]): 30%
- Ki (Adenosine receptor A3 [7]): 9550 nM
Compound: Cn1cc2c(nc(NCCOCCOCCNC(=S)Nc3ccc(C4c5ccc(O)cc5OC5=CC(=O)C=CC54)c(C(=O)O)c3)n3nc(-c4ccco4)nc23)n1 (configuration not stated)

- pKb [15]: 6.4
- pKb [16]: 6.5
Compound: CCCn1c(=O)c2[nH]c(-c3ccc(OCC(=O)NCCNC(=O)CCCCCNC(=O)COc4ccc(/C=C/C5=[N+]6C(=Cc7ccc(-c8cccs8)n7[B-]6(F)F)C=C5)cc4)cc3)nc2n(CCC)c1=O

- Kd (Adenosine receptor A3 [17]): 6.65 nM
- Ki (Adenosine receptor A1 [18]): 87.1 nM
- Ki (Adenosine receptor A2a [6]): 74.1 nM
- Kd (Adenosine receptor A3 [19]): 5.15 nM
- Ki (Adenosine receptor A3 [7]): 6.46 nM
Compound: N=c1ccc2c(-c3ccc(C(=O)NCCCCCCn4cc(CCCC(=O)Nc5nc6ccc(Cl)cc6c6nc(-c7ccco7)nn56)nn4)cc3C(=O)O)c3ccc(N)c(S(=O)(=O)O)c3oc-2c1S(=O)(=O)O

- Kd (Adenosine receptor A1 [1]): 16.2 nM
Compound: CCNC(=O)[C@H]1O[C@@H](n2cnc3c(NCCCNC(=O)COc4ccc(/C=C/C5=[N+]6C(=Cc7ccc(-c8cccs8)n7[B-]6(F)F)C=C5)cc4)ncnc32)[C@H](O)[C@@H]1O
